Laboratory results taken from publication PMC6278315, “Microwave-Assisted Expeditious Synthesis of 2-Alkyl-2-(N-arylsulfonylindol-3-yl)-3-N-acyl-5-aryl-1,3,4-oxadiazolines Catalyzed by HgCl2 under Solvent-Free Conditions as Potential Anti-HIV-1 Agents” (Molecules, 2018).
Values after ≈ are worked out from the molar mass of the structure shown.

Assays:
[1] = MTT-based cytotoxicity assay; conditions: human, C8166 cells, concentration causing 50% reduction in total C8166 cell number, means of two separate experiments, read-out: CC50 (50% cytotoxic concentration)
Procedure: (§1) Cell line (C8166) and the laboratory-derived virus (HIV-1IIIB) were obtained from MRC, AIDS Reagent Project, London, UK. C8166 was maintainedin RPMI-1640 supplemented with 10% heat-inactivated newborn calf serum (Gibco, Grand Island, NY, USA). The cells used in all experiments were in log-phase growth. The 50% HIV-1IIIB tissue culture infectious dose (TCID50) in C8166 cells was determined and calculated by the Reed and Muench method. Virus stocks were stored in small aliquots at −70 °C.
Cellular toxicity of 2-alkyl-2-(N-arylsulfonylindol-3-yl)-3-N-acyl-5-aryl-1,3,4-oxadiazolines 3s–r′ on C8166 cells was assessed by MTT method as described previously. Briefly, cells were seeded on 96-well microtiter plate in the absence or presence of various concentrations of 2-alkyl-2-(N-arylsulfonylindol-3-yl)-3-N-acyl-5-aryl-1,3,4-oxadiazolines in triplicate and incubated at 37 °C in a humid atmosphere of 5% CO2 for 3 day. The supernatants were discarded and MTT reagent (5 mg/mL in PBS) was added to each wells, then incubated for 4 h, 100 μL of 50% N,N-dimethylformamide (DMF)-20% SDS was added. After the formazan was dissolved completely, the plates were read on a Bio-TekElx800 ELISA reader (BioTek, Winooski, VT, USA) at 595/630 nm. The cytotoxic concentration that caused the reduction of viable C8166 cells by 50% (CC50) was determined from dose–response curve.

[2] = system: HIV-1IIIB; assay: Syncytia assay (anti-HIV-1 activity); format: cell-based; conditions: Human immunodeficiency virus 1, 72 h; concentration reducing syncytia formation by 50%; C8166 cells infected with HIV-1IIIB, M.O.I 0.06, 3 days; means of two separate experiments; read-out: EC50 (50% effective concentration)
Procedure: as §1
In the presence of 100 μL various concentrations of 2-alkyl-2-(N-arylsulfonylindol-3-yl)-3-N-acyl-5-aryl-1,3,4-oxadiazolines, C8166 cells (4 × 10^5/mL) were infected with virus HIV-1IIIB at a multiplicity of infection (M.O.I) of 0.06. The final volume per well was 200 μL. Control assays were performed without the testing compounds in HIV-1IIIB infected and uninfected cultures. After 3 days of culture, the cytopathic effect (CPE) was measured by counting the number of syncytia. Percentage inhibition of syncytia formation was calculated and 50% effective concentration (EC50) was calculated. AZT (Sigma-Aldrich, St. Louis, MO, USA) was used as a positive control. Therapeutic index (TI) = CC50/EC50.

SMILES	melting point	CC50 at 3 day [1]	EC50 [2]
CC(=O)N1N=C(c2ccccc2)OC1(C)c1cn(S(=O)(=O)c2ccc(Cl)cc2)c2ccc(C#N)cc12 (stereo not drawn) [3a′, 2-Methyl-2-(N-p-chlorobenzenesulfonyl-5-cyanoindol-3-yl)-3-N-acetyl-5-phenyl-1,3,4-oxadiazolines]	128 to 130 °C	113 µg/mL (≈ 218 µM)	3.63 µg/mL (≈ 6.99 µM)
CC(=O)N1N=C(c2ccccc2)OC1(C)c1cn(S(=O)(=O)c2ccc(C)cc2)c2ccc([N+](=O)[O-])cc12 (stereo not drawn) [3b′, 2-Methyl-2-(N-p-methylbenzenesulfonyl-5-nitroindol-3-yl)-3-N-acetyl-5-phenyl-1,3,4-oxadiazolines]	110 to 112 °C	133 µg/mL (≈ 256 µM)	9.54 µg/mL (≈ 18.4 µM)
CC(=O)N1N=C(c2ccccc2)OC1(C)c1cn(S(=O)(=O)c2ccc(Cl)cc2)c2ccc([N+](=O)[O-])cc12 (stereo not drawn) [3c′, 2-Methyl-2-(N-p-chlorobenzenesulfonyl-5-nitroindol-3-yl)-3-N-acetyl-5-phenyl-1,3,4-oxadiazolines]	108 to 110 °C	53.4 µg/mL (≈ 99.1 µM)	6.01 µg/mL (≈ 11.2 µM)
CCC1(c2cn(S(=O)(=O)c3ccccc3)c3ccccc23)OC(c2ccccc2)=NN1C(C)=O (stereo not drawn) [3d′, 2-Ethyl-2-(N-benzenesulfonylindol-3-yl)-3-N-acetyl-5-phenyl-1,3,4-oxadiazolines]	224 to 226 °C	105 µg/mL (≈ 222 µM)	20.3 µg/mL (≈ 42.9 µM)
CC(=O)N1N=C(c2ccccc2)OC1c1cn(S(=O)(=O)c2ccc(C)cc2)c2ccccc12 (stereo not drawn) [3e′]		15.1 µg/mL (≈ 32.8 µM)	15.5 µg/mL (≈ 33.8 µM)
CC(=O)N1N=C(c2ccccc2)OC1c1cn(S(=O)(=O)c2cccc([N+](=O)[O-])c2)c2ccccc12 (stereo not drawn) [3f′]		43.5 µg/mL (≈ 88.6 µM)	1.79 µg/mL (≈ 3.65 µM)
CC(=O)N1N=C(c2ccccc2)OC1c1cn(S(=O)(=O)c2ccc(C)cc2)c2cc(C)ccc12 (stereo not drawn) [3g′]		80.8 µg/mL (≈ 171 µM)	22.5 µg/mL (≈ 47.5 µM)
CC(=O)N1N=C(c2ccccc2)OC1c1cn(S(=O)(=O)c2ccc(Cl)c([N+](=O)[O-])c2)c2ccccc12 (stereo not drawn) [3h′]		4.8 µg/mL (≈ 9.14 µM)	3.53 µg/mL (≈ 6.72 µM)
CC(=O)N1N=C(c2ccccc2)OC1c1cn(S(=O)(=O)c2cccc([N+](=O)[O-])c2)c2cc(C)ccc12 (stereo not drawn) [3i′]		20.2 µg/mL (≈ 40 µM)	0.51 µg/mL (≈ 1.01 µM)
CC(=O)N1N=C(c2ccccc2)OC1c1cn(S(=O)(=O)c2ccc(Cl)c([N+](=O)[O-])c2)c2cc(C)ccc12 (stereo not drawn) [3j′]		2.26 µg/mL (≈ 4.19 µM)	12.4 µg/mL (≈ 23 µM)
CC(=O)N1N=C(c2ccccc2)OC1c1cn(S(=O)(=O)c2ccc(Cl)cc2)c2ccccc12 (stereo not drawn) [3k′]		16.6 µg/mL (≈ 34.5 µM)	19.4 µg/mL (≈ 40.4 µM)
CC(=O)N1N=C(c2ccccc2)OC1c1cn(S(=O)(=O)c2ccc(Cl)cc2)c2cc(C)ccc12 (stereo not drawn) [3l′]		182 µg/mL (≈ 368 µM)	57.5 µg/mL (≈ 116 µM)
COc1ccc(S(=O)(=O)n2cc(C3OC(c4ccccc4)=NN3C(C)=O)c3ccccc32)cc1 (stereo not drawn) [3m′]		12.3 µg/mL (≈ 25.9 µM)	22.5 µg/mL (≈ 47.3 µM)
COc1ccc(S(=O)(=O)n2cc(C3OC(c4ccccc4)=NN3C(C)=O)c3ccc(C)cc32)cc1 (stereo not drawn) [3n′]		11.2 µg/mL (≈ 22.9 µM)	16.6 µg/mL (≈ 33.8 µM)
CC(=O)N1N=C(c2ccccc2)OC1c1cn(S(=O)(=O)c2ccc(C)cc2)c2ccc(C#N)cc12 (stereo not drawn) [3o′]		152 µg/mL (≈ 313 µM)	18.1 µg/mL (≈ 37.4 µM)
CC(=O)N1N=C(c2ccccc2)OC1c1cn(S(=O)(=O)c2cccc([N+](=O)[O-])c2)c2ccc(C#N)cc12 (stereo not drawn) [3p′]		135 µg/mL (≈ 262 µM)	63.8 µg/mL (≈ 124 µM)
CCC(=O)N1N=C(c2ccccc2)OC1c1cn(S(=O)(=O)c2ccc(C)cc2)c2ccccc12 (stereo not drawn) [3q′]		78 µg/mL (≈ 165 µM)	3 µg/mL (≈ 6.34 µM)
CCC(=O)N1N=C(c2ccccc2)OC1c1cn(S(=O)(=O)c2ccc(C)cc2)c2ccc(C#N)cc12 (stereo not drawn) [3r′]		98.3 µg/mL (≈ 197 µM)	4.01 µg/mL (≈ 8.04 µM)
CC(=O)N1N=C(c2ccccc2)OC1(C)c1cn(S(=O)(=O)c2ccccc2)c2cc(C)ccc12 (stereo not drawn) [3y, 2-Methyl-2-(N-benzenesulfonyl-6-methylindol-3-yl)-3-N-acetyl-5-phenyl-1,3,4-oxadiazolines]	142 to 144 °C	> 200 µg/mL	6.12 µg/mL (≈ 12.9 µM)
CC(=O)N1N=C(c2ccccc2)OC1(C)c1cn(S(=O)(=O)c2ccccc2)c2ccc(C#N)cc12 (stereo not drawn) [3z, 2-Methyl-2-(N-benzenesulfonyl-5-cyanoindol-3-yl)-3-N-acetyl-5-phenyl-1,3,4-oxadiazolines]	208 to 210 °C	53 µg/mL (≈ 109 µM)	17.6 µg/mL (≈ 36.3 µM)
Cc1cn([C@H]2C[C@H](N=[N+]=[N-])[C@@H](CO)O2)c(=O)[nH]c1=O [AZT, 3′-azido-3′-deoxythymidine, reference compound]		1370 µg/mL (≈ 5140 µM)	0.00199 µg/mL (≈ 0.00745 µM)
